A short description of series [1]: Physiologically based multi-compartment pharmacokinetic model. Details: species or system mouse. Conditions: GN^WT mice, oral BRV. The text has this: These quantitative measurements of drug and metabolite levels, collected over time, were used in various compartments, and in the presence and absence of microbial drug metabolism, to build the predictor module 130 which implements a physiologically based pharmacokinetic model to predict the levels and source of systemic drug and metabolite exposure over time, and quantify the contribution of host and microbiota to systemic drug and metabolite exposure. First, to parameterize processes independent from microbial BRV metabolism (grey compartments in FIG. 19A), a global optimization procedure was used to fit measured BRV and BVU kinetics in serum and intestinal compartments of GN^MUT mice. […]
Measured BRV and BVU kinetics in serum and intestinal compartments of GN^MUT mice were used to parameterize processes independent from bacterial BRV conversion (grey compartments as illustrated in FIG. 19A) using the global optimization procedure to best fit the measured data. […]
To parameterize processes dependent on microbial BRV metabolism (green compartments in FIG. 19A), including bacterial BRV to BVU conversion (kc^B) and BVU absorption rates from cecum and colon (KaLI1^M and kaLI2^M), measured BRV and BVU kinetics in cecum and colon (but not serum) of GN^WT mice, as illustrated in FIGS. 19C and 20A, are used. […]

The format of series [2] is in vivo, C57BL/6J mice. As to the method: Germfree mice were colonized with the wildtype and mutant strains. BRV was administered.
Individually caged GF C57BL/6J mice are colonized by oral gavage with 200 μL of an overnight GMM culture of either B. thetaiotaomicron wild type or bt4554 strains to generate GN^WT or GN^MUT mice, respectively. After 4 days, bacterial loads are determined by CFU plating on BHI blood agar prior to drug treatment.
(§1) Each drug treatment is performed using 20 treated and 5 to 6 untreated animals. Both genders are equally represented in each group and evenly distributed across the different time points for sample collection. Animals (n=5 per time point and group) are given 100 mg/kg body weight of BRV or SRV as suspensions in PBS (200 μL PBS for controls) by oral gavage. One blood sample is collected from each animal at an early time point (0.5, 1, 1.5, or 2 hours after drug administration) by submandibular bleeding. At 3, 5, 7, and 9 h, mice are sacrificed and tissue samples are collected into sample tubes and snap-frozen. Fecal samples are collected before euthanization and re-suspended in PBS (1 mL) through vigorous shaking. 20 μL are then plated on BHI blood plates and incubated aerobically and anaerobically at 37° C. to check GF, GN^WT, and GN^MUT animals for contamination. Monocolonized mice are also checked for contamination by PCR using primers 7 and 8.

Series [3] can be described thus: Oral BRV in conventional (CV) and germfree (GF) mice, drug and metabolite levels. In kind it is in vivo, C57BL/6 mice. As to the method:
Oral BRV was administered to conventional (CV) and germfree (GF) C57BL/6 mice, and BRV and BVU concentrations were measured over time along the length of the gastrointestinal tract as shown in FIG. 4C. Serum kinetics of BRV and BVU in conventional (CV) and germ-free (GF) mice were compared following oral BRV administration.
All experiments using mice are performed using protocols approved by the Yale University Institutional Animal Care and Use Committee. Germfree (GF) 8 to 12 week old C57BL/6J mice are maintained in flexible plastic gnotobiotic isolators with a 12-hour light/dark cycle and GF status monitored by PCR and culture-based methods. Conventional C57BL/6J mice (Jackson Laboratories) are purchased at the age of 6-7 weeks and kept in the lab for 2-3 weeks before experiments. All mice are provided a standard, autoclaved mouse chow (5013 LabDiet, Purina) ad libitum.
as §1
200 μL of 0.1 mm zirconia/silica beads (BioSpec Products) and 500 μL of organic solvent (acetonitrile:methanol, 1:1) supplemented with internal standard are added to 50-350 mg of pre-weighed solid material. Material is homogenized by mechanical disruption with a bead beater (BioSpec Products) set for 2 minutes on high setting at room temperature. After incubation for at least 1 h at −20° C., samples are centrifuged (3220 rcf, −9° C.) for 15 min. 10 μL of supernatant are diluted with 10 μL H2O for analysis by LC-MS.
Samples for LS-MS analysis are prepared as described above. Chromatographic separation is performed on a C18 Kinetex Evo column (Phenomenex, 100 mm×2.1 mm, […]) using mobile phase A: H2O, 0.1% formic acid and B: methanol, 0.1% formic acid at 45° C. 5 μL of sample are injected at 100% A and 0.4 mL/min flow followed by a linear gradient to 95% B over 5.5 min and 0.4 mL/min flow leading to thymine, BVU, SRV, and BRV elution at 0.95, 2.0, 2.15, and 2.4 min, respectively. The internal standards caffeine and sulfamethoxazole elute at 1.9 and 2.1 min, respectively. The qTOF is operated in positive scanning mode (50-1000 m/z) and the following source parameters: VCap is 3500 V; nozzle voltage is 2000 V; gas temp is 225 C; drying gas 13 L/min; nebulizer is 20 psig; sheath gas temp is 225 C; and sheath gas flow is 12 L/min. Online mass calibration is performed using a second ionization source and a constant flow (5 μL/min) of reference solution (121.0509 and 922.0098 m/z). Compounds are identified based on the retention time of chemical standards and their accurate mass (tolerance 20 ppm).

On to `O=c1[nH]cc(/C=C/Br)c(=O)[nH]1` [BVU, bromovinyluracil], for which the “microbial share of total BVU exposure in serum (area under the curve)” value in series [1] was 77%. Moreover, the “serum BVU levels” value in series [2] (GN^WT compared to GN^MUT mice) was “significantly higher”. Moreover, the “absorption of BVU from cecum and colon” value in series [2] (GN^WT mice) is “almost entirely absorbed”. The “BVU levels in the liver” value in series [2] (GN^WT mice after BRV administration) is given as “increased BVU levels”. In addition, the “BVU concentrations in the liver” value in series [3] (CV compared to GF mice, oral BRV) was “increased”. Further, the BVU intestinal concentrations result in series [3] (CV mice compared to GF controls, oral BRV) is on record as “increased intestinal concentrations”. Further, in series [3] (CV versus GF mice, later timepoints after oral BRV), the “concentrations of BVU in serum” value was “significantly higher”.
